From ChEMBL document CHEMBL1201862, “PubChem BioAssay data set” (2004) come the findings set out here.

For experiment [1], the target named is T1, Cytochrome P450 1A2 (Homo sapiens, UniProt P05177).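 Further: PubChem cytochrome P450 panel assay, CYP1A2 panel member.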
T1 sequence (P05177 whole entry): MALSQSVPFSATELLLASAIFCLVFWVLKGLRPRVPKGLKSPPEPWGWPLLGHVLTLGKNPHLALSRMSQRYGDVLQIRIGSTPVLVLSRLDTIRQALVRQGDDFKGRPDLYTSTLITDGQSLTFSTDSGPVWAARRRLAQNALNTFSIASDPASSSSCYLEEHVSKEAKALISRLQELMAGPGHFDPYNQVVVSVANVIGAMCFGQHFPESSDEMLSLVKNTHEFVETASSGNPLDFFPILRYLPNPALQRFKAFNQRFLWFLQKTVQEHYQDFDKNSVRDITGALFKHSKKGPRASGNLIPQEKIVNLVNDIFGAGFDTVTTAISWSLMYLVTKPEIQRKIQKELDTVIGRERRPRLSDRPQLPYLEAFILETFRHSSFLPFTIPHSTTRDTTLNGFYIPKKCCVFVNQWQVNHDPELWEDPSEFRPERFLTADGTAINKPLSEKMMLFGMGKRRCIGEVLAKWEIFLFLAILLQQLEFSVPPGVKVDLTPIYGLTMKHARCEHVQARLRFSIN

Experiment [2] concerns the target Cytochrome P450 2D6 (Homo sapiens, UniProt P10635).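 Further: CYP2D6 member of a cytochrome P450 panel assay.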
The target in experiment [3] is Cytochrome P450 3A4 (Homo sapiens, UniProt P08684).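 Further: CYP3A4 tested as one member of a cytochrome P450 panel screen.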
Cytochrome P450 3A4, sequence (P08684 whole entry): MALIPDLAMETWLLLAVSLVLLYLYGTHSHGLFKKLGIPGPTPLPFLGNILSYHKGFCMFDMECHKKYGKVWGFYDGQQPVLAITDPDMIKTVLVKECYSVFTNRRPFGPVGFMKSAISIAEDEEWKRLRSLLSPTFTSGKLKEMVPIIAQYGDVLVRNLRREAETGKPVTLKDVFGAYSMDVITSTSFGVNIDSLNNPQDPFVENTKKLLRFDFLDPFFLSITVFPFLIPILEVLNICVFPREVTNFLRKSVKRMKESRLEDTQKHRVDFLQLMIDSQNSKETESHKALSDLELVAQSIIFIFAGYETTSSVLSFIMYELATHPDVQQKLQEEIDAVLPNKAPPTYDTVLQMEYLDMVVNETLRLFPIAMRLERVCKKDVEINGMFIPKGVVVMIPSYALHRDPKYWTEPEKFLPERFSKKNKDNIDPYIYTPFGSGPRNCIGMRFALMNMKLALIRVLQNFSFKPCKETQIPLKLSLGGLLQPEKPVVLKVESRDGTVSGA
Experiment [4] deals with Cytochrome P450 2C19 (Homo sapiens, UniProt P33261). In words: Cytochrome panel assay with activity outcomes. Panel member name: p450-cyp2c19 Compounds with AC50 equal or less than 10 uM are considered active. The following applies: read-out: AC50. The experiment is classed as functional.
Cytochrome P450 2C19, sequence (P33261 whole entry): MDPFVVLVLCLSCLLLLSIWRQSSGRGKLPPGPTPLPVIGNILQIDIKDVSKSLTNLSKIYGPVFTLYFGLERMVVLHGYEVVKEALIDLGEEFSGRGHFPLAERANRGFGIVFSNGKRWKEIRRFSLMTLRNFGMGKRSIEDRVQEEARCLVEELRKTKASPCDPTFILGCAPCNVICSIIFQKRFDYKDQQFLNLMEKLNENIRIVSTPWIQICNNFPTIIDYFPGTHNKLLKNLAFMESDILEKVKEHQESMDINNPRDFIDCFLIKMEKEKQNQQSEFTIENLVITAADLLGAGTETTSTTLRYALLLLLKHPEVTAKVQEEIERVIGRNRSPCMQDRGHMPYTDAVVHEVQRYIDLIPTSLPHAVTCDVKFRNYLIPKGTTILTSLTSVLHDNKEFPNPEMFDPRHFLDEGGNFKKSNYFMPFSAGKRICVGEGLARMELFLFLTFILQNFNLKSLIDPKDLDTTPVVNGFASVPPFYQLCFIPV
The target of experiment [5] is Cytochrome P450 2C9 (Homo sapiens, UniProt P11712).
Cytochrome P450 2C9, sequence (P11712 whole entry): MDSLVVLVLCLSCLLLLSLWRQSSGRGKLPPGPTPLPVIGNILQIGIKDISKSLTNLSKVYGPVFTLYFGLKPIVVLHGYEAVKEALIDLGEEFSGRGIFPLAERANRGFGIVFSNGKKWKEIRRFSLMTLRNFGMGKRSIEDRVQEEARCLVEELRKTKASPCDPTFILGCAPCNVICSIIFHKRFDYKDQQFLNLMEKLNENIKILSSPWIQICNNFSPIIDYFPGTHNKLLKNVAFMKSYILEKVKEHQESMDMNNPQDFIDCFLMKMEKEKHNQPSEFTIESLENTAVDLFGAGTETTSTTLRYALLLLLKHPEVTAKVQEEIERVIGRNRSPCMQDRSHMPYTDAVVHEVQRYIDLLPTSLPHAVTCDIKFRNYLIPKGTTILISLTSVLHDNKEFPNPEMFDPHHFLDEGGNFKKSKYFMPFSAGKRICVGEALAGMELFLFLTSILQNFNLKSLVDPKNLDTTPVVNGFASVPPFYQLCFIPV
Experiment [6] can be described thus: Luminescence Cell-Based Dose Response HTS to Identify Activators of Luciferase Translation or Activity in H4 […] Cells. [Related pubchem assays: 1829 (Project Summary), 1814 (Primary HTS)]. In kind it is functional.
Experiment [7] concerns H4. In words: Luminescence Cell-Based Dose Response HTS to Identify Activators of 5'UTR Stem-Loop Driven Prion Protein mRNA Translation in H4 Neuroglioblastoma Cells. [Related pubchem assays: 1829 (Project Summary), 1814 (Primary HTS)]. In kind it is functional. Conditions: Homo sapiens.
A short description of experiment [8]: NIH-3T3 fibroblast cytotoxicity, dose response, cytotoxicity control, cell-based, fluorescence, Alamar Blue, secondary assay (AID 2327).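 Further: NIH-3T3 mouse fibroblasts cultured with fluconazole at 8 µg/mL.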 The experiment is classed as functional. Background: Alamar Blue is a resazurin reagent that responds to reducing activity.

Calls of active or inactive are those of the source.

Cytochrome P450 2D6, sequence (P10635 whole entry): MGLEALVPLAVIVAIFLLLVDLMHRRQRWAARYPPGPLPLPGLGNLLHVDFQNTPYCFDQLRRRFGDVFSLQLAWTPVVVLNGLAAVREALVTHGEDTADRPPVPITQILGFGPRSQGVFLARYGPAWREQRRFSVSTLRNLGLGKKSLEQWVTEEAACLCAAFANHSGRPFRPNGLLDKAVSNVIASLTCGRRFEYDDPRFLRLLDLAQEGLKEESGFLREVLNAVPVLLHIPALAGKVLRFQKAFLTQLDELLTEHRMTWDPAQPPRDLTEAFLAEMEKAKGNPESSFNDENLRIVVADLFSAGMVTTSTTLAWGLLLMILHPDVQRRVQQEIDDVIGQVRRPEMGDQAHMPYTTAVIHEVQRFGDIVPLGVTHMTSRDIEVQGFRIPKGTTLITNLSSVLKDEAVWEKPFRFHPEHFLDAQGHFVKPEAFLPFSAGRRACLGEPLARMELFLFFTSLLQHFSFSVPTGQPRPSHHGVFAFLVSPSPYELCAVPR

Take `CCCCSc1nc(C)cc(N=C(S)Nc2ccc(OC)cc2)n1`: the concentration at half-maximal activity (AC50) in experiment [1] was 4.47 µM (inconclusive).
Regarding `CCCC(=O)Nc1c2c(nn1-c1ccc(C)cc1C)CSC2`, the AC50 in experiment [1] was 12.6 µM (inconclusive); in experiment [2], 28.2 µM (inconclusive).
`O=C(c1cnc(N2CCN(c3ncccn3)CC2)c2ccccc12)N1CCN(c2ccccn2)CC1`: the AC50 in experiment [1] is 0.0251 µM (inconclusive).
As to `C=CC[C@@H]1C=C[C@H](O/N=C(\C)CCN2CCc3nc(CC)c(CC)cc3C2)[C@H](CO)O1`, in experiment [2], the AC50 is 3.98 µM (inconclusive).
For `O=S(=O)(c1ccccc1)N1CCC2(CC1)CN(c1ccccn1)C2`, the figures for the AC50 in experiment [3], in experiment [4] and in experiment [2] were 12.6 µM (inconclusive), 10 µM (inconclusive) and 20 µM (inconclusive), respectively.
As for `c1ccc(N2CCC3(CCNCC3)CC2)nc1`, the AC50 in experiment [3] is 25.1 µM (inconclusive); in experiment [4] it was 25.1 µM (inconclusive); in experiment [5], 31.6 µM (inconclusive).
For `COC(=O)[C@H](Cc1ccccc1)NC(=O)N1CCN(Cc2ccccc2)CC1`, the AC50 was 14.1 µM (inconclusive) in experiment [3] and 0.01 µM (inconclusive) in experiment [5].
Regarding `CCNc1ncc2nc(-c3cccs3)c(=O)n(CCc3ccccc3)c2n1`, the AC50 was 15.8 µM (inconclusive) in experiment [3] and 20 µM (inconclusive) in experiment [2].
Consider `Cc1cccc(Nc2ccccc2C(=O)OCC(=O)NCc2ccco2)c1C`, for which the AC50 in experiment [5] is 11.2 µM (inconclusive).
The same measure, in the same setting: the value for `C[C@@H](C(=O)Nc1ccc2ccccc2c1)[C@@H]1C[C@@]1(C)[C@@H](NC(=O)Oc1ccc(F)cc1)c1ccccc1` was 0.251 µM (inconclusive).
Regarding `CCC(C)NC(=O)CCS(=O)(=O)c1ccc(Br)s1` (stereo not drawn), the half-maximal activity concentration (AC50) was 12.6 µM (inconclusive) in experiment [5] and 28.2 µM (inconclusive) in experiment [2].
Consider `CCc1ccc(OCC(=O)NC(=S)Nc2ccc(C)cc2C)c(Br)c1`, for which the concentration at half-maximal activity (AC50) in experiment [3] is 31.6 µM (inconclusive); in experiment [1] it was 4.47 µM (inconclusive); in experiment [5], 0.631 µM (inconclusive).
`Cc1noc(C)c1-c1nccc(NCCN2CCOCC2)n1`: the concentration at half-maximal activity (AC50) in experiment [3] and in experiment [2] was 20 µM (inconclusive) in each case.
In the case of `FC(F)(F)c1cc(-c2ccco2)nc(NCc2cccs2)n1`, the half-maximal activity concentration (AC50) in experiment [4] was 1.26 µM (inconclusive); in experiment [2], 20 µM (inconclusive).
With `Cc1ccc(-n2c(C)c(C)c3c(NCCCO)ncnc32)cc1`, the EC50 is 119 µM (active) in experiment [6] and > 120 µM (not active) in experiment [7].
For the compound `COc1ccccc1-c1cncnc1N(C)Cc1ccco1`, the AC50 in experiment [2] is 25.1 µM (inconclusive).
In the case of `COc1ccc(C2=Nc3c(c(=O)n(C)c(=O)n3C)C(C(F)(F)F)(C(F)(F)F)N2)cc1`, the AC50 in experiment [3] was 14.1 µM (inconclusive); in experiment [1] it was 11.2 µM (inconclusive).
Take `O=C(NCCOc1nc(N2CCOCC2)nc(N2CCOCC2)n1)Nc1ccccc1`: the AC50 in experiment [3] is 22.4 µM (inconclusive); in experiment [5], 15.8 µM (inconclusive).
Take `COc1ccc(C2C(C#N)=C(N)N(Nc3ccccc3)C3=C2C(=O)CC(C)(C)C3)cc1C` (stereo not drawn): in experiment [1], the concentration at half-maximal activity (AC50) was 39.8 µM (inconclusive).
Regarding `Cc1ccc(-n2c(C)cc(/C=C(\C#N)C(=O)NCC3CCCO3)c2C)cc1` (stereo not drawn), the results for the AC50 in experiment [3] and in experiment [2] were 31.6 µM (inconclusive) and 14.1 µM (inconclusive), respectively.
As for `COC(=O)c1cc2c(ccn2-c2ccc(F)cc2)n1C(C)C`, the half-maximal activity concentration (AC50) was 25.1 µM (inconclusive) in experiment [3] and 22.4 µM (inconclusive) in experiment [5].
`c1ccc(Nc2ncnc3ccc(-c4ccc5c(c4)OCO5)cc23)cc1`: the half-maximal activity concentration (AC50) in experiment [5] is 1.58 µM (inconclusive).
Take `CN(C)c1ncc2nc(-c3ccc(F)cc3)c(=O)n(CCC#N)c2n1`: the values for the AC50 in experiment [1] and in experiment [2] were 1.26 µM (inconclusive) and 0.501 µM (inconclusive), respectively.
Take `Cc1ccc(C)c(Nc2nc3nonc3nc2N2CCOCC2)c1`: the AC50 in experiment [5] is 0.355 µM (inconclusive).
As to `CN1CCN(c2ncnc3ccc(-c4cccc(NS(C)(=O)=O)c4)cc23)CC1`, the figures for the concentration at half-maximal activity (AC50) in experiment [3] and in experiment [1] were 12.6 µM (inconclusive) and 25.1 µM (inconclusive), respectively.
Take `Cc1c(C=O)c2ccccn2c1C(=O)c1ccncc1`: the AC50 was 10 µM (inconclusive) in experiment [3] and 25.1 µM (inconclusive) in experiment [2].
Regarding `COc1cccc(NC(=O)NCCC2=CCCCC2)c1`, the EC50 in experiment [6] was 51 µM (active); in experiment [7], 0.324 µM (active).
`O=C(NCCCN1CCCCCC1)[C@@H](c1ccccc1)C1CCCCC1`: the AC50 in experiment [1] was 31.6 µM (inconclusive).
For the compound `Cc1nn2c(NCC(C)C)c3c(nc2c1-c1ccccc1)CCC3`, the AC50 in experiment [3] is 10 µM (inconclusive); in experiment [5], 0.708 µM (inconclusive).
As to `CCOc1ccc(N2CC(C(=O)NCc3cccc(C)c3)CC2=O)cc1` (stereo not drawn), the AC50 in experiment [1] is 14.1 µM (inconclusive).
With `CCCCNC(=O)C(=O)c1ccccc1NC(C)=O`, the half-maximal activity concentration (AC50) was 39.8 µM (inconclusive) in experiment [1] and 22.4 µM (inconclusive) in experiment [4].
Regarding `CC(C)On1c(SC(C)C)nc2ccccc2c1=O`, the AC50 in experiment [4] is 28.2 µM (inconclusive); in experiment [5], 31.6 µM (inconclusive).
On to `COc1ccc(S(=O)(=O)N(CC(=O)N2CCCC2)Cc2ccccc2)cc1`, for which the concentration at half-maximal activity (AC50) in experiment [5] is 1 µM (inconclusive).
For `CCOC(=O)CSc1nnc(Cc2ccccc2)n1-c1cccc(Cl)c1`, the AC50 in experiment [1] was 25.1 µM (inconclusive); in experiment [5], 39.8 µM (inconclusive); in experiment [2] it was 0.0891 µM (inconclusive).
Take `Cc1cc(C)c2c(-n3cccc3)[nH]nc2n1`: in experiment [5], the half-maximal activity concentration (AC50) was 6.31 µM (inconclusive).
Regarding `CC(O)(CS(=O)(=O)c1cccc(C(F)(F)F)c1)C(=O)Nc1ccc(C(F)(F)F)cc1` (stereo not drawn), the AC50 in experiment [2] was 0.0224 µM (inconclusive).
Regarding `O=[N+]([O-])c1ccc(/C=N/Nc2cc(Cl)nc(-c3ccccc3)n2)cc1`, the AC50 in experiment [5] was 0.00562 µM (inconclusive).
For the compound `C/C(=N\Nc1ccc(Cl)cc1)c1c(O)cc(C)oc1=O`, the concentration for a half-maximal effect (EC50) in experiment [8] is 29.4 µM (active).
In the case of `c1ccc(C[C@@H](c2ccccc2)N2CCCCC2)cc1`, the AC50 was 31.6 µM (inconclusive) in experiment [3], 15.8 µM (inconclusive) in experiment [1] and 7.94 µM (inconclusive) in experiment [4].
With `N#Cc1cccc(-c2cncnc2NCc2ccccc2)c1`, in experiment [2], the concentration at half-maximal activity (AC50) was 20 µM (inconclusive).

For orientation: AC50 means the midpoint of the concentration-response curve, whichever way the signal moves. By EC50 is commonly meant the concentration giving half of the maximal effect.
